Measured values from article PMC7151638, “Investigation of a thermostable multi-domain xylanase-glucuronoyl esterase enzyme from Caldicellulosiruptor kristjanssonii incorporating multiple carbohydrate-binding modules” (Biotechnology for Biofuels, 2020).

Target: T1, CkGE15A (Caldicellulosiruptor acetigenus, UniProt E4S6E9)
T1 construct: gene Calkr_2245; CE15 glucuronoyl esterase domain only, cut from the 191-kDa multidomain protein (CBM22-CBM22-GH10-CBM9-CBM9-CBM9-CE15-cadherin-SLH-SLH); modified pET-28a with TEV site, E. coli BL21, Ni IMAC
T1 sequence (E4S6E9 1270-1690 limits assumed): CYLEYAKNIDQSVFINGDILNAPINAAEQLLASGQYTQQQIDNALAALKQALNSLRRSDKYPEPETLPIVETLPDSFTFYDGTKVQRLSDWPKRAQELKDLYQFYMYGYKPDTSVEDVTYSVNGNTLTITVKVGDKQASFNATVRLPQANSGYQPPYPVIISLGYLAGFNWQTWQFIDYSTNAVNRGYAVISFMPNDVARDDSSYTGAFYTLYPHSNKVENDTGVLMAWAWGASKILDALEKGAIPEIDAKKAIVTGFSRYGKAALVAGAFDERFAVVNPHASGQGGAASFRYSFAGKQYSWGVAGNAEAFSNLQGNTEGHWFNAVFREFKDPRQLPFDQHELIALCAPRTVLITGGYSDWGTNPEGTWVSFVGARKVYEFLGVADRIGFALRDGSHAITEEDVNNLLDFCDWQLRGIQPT
Assay: continuous coupled assay of uronic acid release (K-URONIC kit, NADH at […] nm)
Type: biochemical
Conditions: 22 °C; pH 7.5; printed as 'Cannot be saturated up to 40 mM'

| SMILES | Km [mM] |
| --- | --- |
| COC(=O)[C@H]1OC(O)[C@H](O)[C@@H](O)[C@@H]1O (stereo partly drawn) [MeGlcA, Methyl-D-glucuronoate] | > 40 |
| C=CCOC(=O)[C@H]1OC(O)[C@H](O)[C@@H](O)[C@@H]1O (stereo partly drawn) [AllGlcA, Allyl-D-glucuronoate] | > 40 |
